Experimental data published in US10526327B2, “Histone demethylase inhibitors” (CELGENE QUANTICEL RESEARCH, INC., priority 2013, dated 2020).

Assays:
Jarid1B = target: T1, Jarid1B (Homo sapiens, UniProt Q9UGL1); assay: Jarid1B in vitro enzyme inhibition assay (TR-FRET); type: biochemical
T1 construct: purchased BPS Bioscience or custom made by MolecularThroughput 50121
T1 sequence (Q9UGL1 2-751): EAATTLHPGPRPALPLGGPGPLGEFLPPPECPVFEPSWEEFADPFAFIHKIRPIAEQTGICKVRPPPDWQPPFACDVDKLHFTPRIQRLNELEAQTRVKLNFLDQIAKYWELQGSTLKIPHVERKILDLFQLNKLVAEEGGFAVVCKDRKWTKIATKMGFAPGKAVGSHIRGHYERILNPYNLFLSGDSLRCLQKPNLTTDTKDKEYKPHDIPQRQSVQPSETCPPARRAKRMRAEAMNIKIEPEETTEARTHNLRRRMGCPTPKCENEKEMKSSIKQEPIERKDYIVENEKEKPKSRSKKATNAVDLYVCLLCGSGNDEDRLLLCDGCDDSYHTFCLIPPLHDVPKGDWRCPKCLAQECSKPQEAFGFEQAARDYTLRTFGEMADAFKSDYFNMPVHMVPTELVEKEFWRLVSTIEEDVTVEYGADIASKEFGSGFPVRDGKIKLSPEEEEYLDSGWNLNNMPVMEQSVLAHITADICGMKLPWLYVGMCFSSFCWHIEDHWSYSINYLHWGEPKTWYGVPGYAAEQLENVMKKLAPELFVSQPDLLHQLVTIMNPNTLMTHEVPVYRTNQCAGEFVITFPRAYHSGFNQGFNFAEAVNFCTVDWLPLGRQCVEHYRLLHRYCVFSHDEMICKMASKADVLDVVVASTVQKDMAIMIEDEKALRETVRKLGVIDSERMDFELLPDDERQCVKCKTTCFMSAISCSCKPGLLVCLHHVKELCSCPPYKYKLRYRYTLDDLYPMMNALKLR
Summary of the method: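 TR-FRET read-out of demethylated product (Eu-anti-H3K4me1-2, streptavidin-APC) after EDTA quench; ratio 665/615 fitted to IC50. Reaction: 30 min at RT, 0.8 nM baculovirus Jarid1B residues 2-751, 2 μM α-ketoglutarate, 300 nM H3K4me3-biotin peptide, pH 7.3 buffer with Fe(II) and ascorbate.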

JMJD2C = target: T2, JMJD2C (Homo sapiens, UniProt Q9H3R0); assay: JMJD2C in vitro enzyme inhibition assay (TR-FRET); type: biochemical
T2 construct: purchased BPS Bioscience 50105
T2 sequence (Q9H3R0 2-372): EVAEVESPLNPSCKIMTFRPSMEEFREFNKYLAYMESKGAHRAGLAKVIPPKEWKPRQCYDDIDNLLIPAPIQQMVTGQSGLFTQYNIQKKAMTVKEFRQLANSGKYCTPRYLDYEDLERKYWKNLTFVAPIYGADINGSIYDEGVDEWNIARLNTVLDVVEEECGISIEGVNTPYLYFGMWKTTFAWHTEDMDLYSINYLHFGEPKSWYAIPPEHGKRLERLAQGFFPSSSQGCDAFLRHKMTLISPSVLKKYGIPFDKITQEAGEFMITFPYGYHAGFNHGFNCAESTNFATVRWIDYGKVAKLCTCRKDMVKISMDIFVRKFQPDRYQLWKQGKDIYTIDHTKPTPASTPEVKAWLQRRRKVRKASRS
Summary of the method: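 IC50 came from 665/615 TR-FRET ratios (Eu-anti-H3K9me2 antibody, streptavidin-APC, EDTA quench) over 11-point inhibitor series. Reactions ran 30 min at room temperature: 0.3 nM JMJD2C (AA 2-372, baculovirus), 300 nM biotinylated H3K9me3 peptide, 2 μM alpha-ketoglutarate, 2 μM Fe(II), ascorbate, pH 7.3.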

IC50 (Jarid1B) [nM] | IC50 (JMJD2C) [nM] | Compound
≤ 100 | ≤ 100 | O=S(=O)(c1ccccc1)N1CC[C@@H](n2cc(Oc3nc(O)c4ccncc4n3)cn2)C1 [Example 128, 2-({1-[(3R)-1-(benzenesulfonyl)pyrrolidin-3-yl]-1H-pyrazol-4-yl}oxy)pyrido[3,4-d]pyrimidin-4-ol]
≤ 100 | ≤ 100 | CC(=O)N1CC[C@@H](n2cc(Oc3nc(O)c4ccncc4n3)cn2)C1 [Example 129, 1-[(3R)-3-[4-({4-hydroxypyrido[3,4-d]pyrimidin-2-yl}oxy)-1H-pyrazol-1-yl]pyrrolidin-1-yl]ethan-1-one]
≤ 100 | ≤ 100 | O=C(C1CC1)N1CC[C@@H](n2cc(Oc3nc(O)c4ccncc4n3)cn2)C1 [Example 131, 2-({1-[(3R)-1-cyclopropanecarbonylpyrrolidin-3-yl]-1H-pyrazol-4-yl}oxy)pyrido[3,4-d]pyrimidin-4-ol]
≤ 100 | ≤ 100 | CCS(=O)(=O)N1CC[C@H](n2cc(Oc3nc(O)c4ccncc4n3)cn2)C1 [Example 136, 2-({1-[(3S)-1-(ethanesulfonyl)pyrrolidin-3-yl]-1H-pyrazol-4-yl}oxy)pyrido[3,4-d]pyrimidin-4-ol]
≤ 100 | ≤ 100 | O=S(=O)(c1ccccc1)N1CC[C@H](n2cc(Oc3nc(O)c4ccncc4n3)cn2)C1 [Example 138, 2-({1-[(3S)-1-(benzenesulfonyl)pyrrolidin-3-yl]-1H-pyrazol-4-yl}oxy)pyrido[3,4-d]pyrimidin-4-ol]
≤ 100 | ≤ 100 | N#CCC(=O)N1CC[C@H](n2cc(Oc3nc(O)c4ccncc4n3)cn2)C1 [Example 140, 3-[(3S)-3-[4-({4-hydroxypyrido[3,4-d]pyrimidin-2-yl}oxy)-1H-pyrazol-1-yl]pyrrolidin-1-yl]-3-oxopropanenitrile]
≤ 100 | ≤ 100 | O=C(c1ccccc1)N1CC[C@H](n2cc(Oc3nc(O)c4ccncc4n3)cn2)C1 [Example 142, 2-({1-[(3S)-1-benzoylpyrrolidin-3-yl]-1H-pyrazol-4-yl}oxy)pyrido[3,4-d]pyrimidin-4-ol]
≤ 100 | ≤ 100 | Oc1nc(Oc2cnn([C@H]3CCN(c4ccc(F)cc4)C3)c2)nc2cnccc12 [Example 146, 2-({1-[(3S)-1-(4-fluorophenyl)pyrrolidin-3-yl]-1H-pyrazol-4-yl}oxy)pyrido[3,4-d]pyrimidin-4-ol]
≤ 100 | ≤ 100 | Oc1nc(Oc2cnn([C@H]3CCN(c4ccc(Cl)cc4)C3)c2)nc2cnccc12 [Example 148, 2-({1-[(3S)-1-(4-chlorophenyl)pyrrolidin-3-yl]-1H-pyrazol-4-yl}oxy)pyrido[3,4-d]pyrimidin-4-ol]
≤ 100 | ≤ 100 | CCS(=O)(=O)N1CCC[C@@H](n2cc(Oc3nc(O)c4ccncc4n3)cn2)C1 [Example 150, 2-({1-[(3R)-1-(ethanesulfonyl)piperidin-3-yl]-1H-pyrazol-4-yl}oxy)pyrido[3,4-d]pyrimidin-4-ol]

More lines, now with the values behind:

Compound | IC50 (Jarid1B) [nM] | IC50 (JMJD2C) [nM]
O=S(=O)(C1CC1)N1CC[C@@H](n2cc(Oc3nc(O)c4ccncc4n3)cn2)C1 [Example 127, 2-({1-[(3R)-1-(cyclopropanesulfonyl)pyrrolidin-3-yl]-1H-pyrazol-4-yl}oxy)pyrido[3,4-d]pyrimidin-4-ol] | ≤ 100 | ≤ 100
N#CCC(=O)N1CC[C@@H](n2cc(Oc3nc(O)c4ccncc4n3)cn2)C1 [Example 130, 3-[(3R)-3-[4-({4-hydroxypyrido[3,4-d]pyrimidin-2-yl}oxy)-1H-pyrazol-1-yl]pyrrolidin-1-yl]-3-oxopropanenitrile] | ≤ 100 | ≤ 100
O=C(c1ccccc1)N1CC[C@@H](n2cc(Oc3nc(O)c4ccncc4n3)cn2)C1 [Example 132, 2-({1-[(3R)-1-benzoylpyrrolidin-3-yl]-1H-pyrazol-4-yl}oxy)pyrido[3,4-d]pyrimidin-4-ol] | ≤ 100 | ≤ 100
Oc1nc(Oc2cnn([C@@H]3CCN(Cc4ccccc4)C3)c2)nc2cnccc12 [Example 133, 2-({1-[(3R)-1-benzylpyrrolidin-3-yl]-1H-pyrazol-4-yl}oxy)pyrido[3,4-d]pyrimidin-4-ol] | ≤ 100 | ≤ 100
Oc1nc(Oc2cnn([C@@H]3CCN(c4ccc(F)cc4)C3)c2)nc2cnccc12 [Example 134, 2-({1-[(3R)-1-(4-fluorophenyl)pyrrolidin-3-yl]-1H-pyrazol-4-yl}oxy)pyrido[3,4-d]pyrimidin-4-ol] | ≤ 100 | ≤ 100
Oc1nc(Oc2cnn([C@H]3CCNC3)c2)nc2cnccc12 [Example 135, 2-({1-[(3S)-pyrrolidin-3-yl]-1H-pyrazol-4-yl}oxy)pyrido[3,4-d]pyrimidin-4-ol] | ≤ 100 | ≤ 100
O=S(=O)(C1CC1)N1CC[C@H](n2cc(Oc3nc(O)c4ccncc4n3)cn2)C1 [Example 137, 2-({1-[(3S)-1-(cyclopropanesulfonyl)pyrrolidin-3-yl]-1H-pyrazol-4-yl}oxy)pyrido[3,4-d]pyrimidin-4-ol] | ≤ 100 | ≤ 100
CC(=O)N1CC[C@H](n2cc(Oc3nc(O)c4ccncc4n3)cn2)C1 [Example 139, 1-[(3S)-3-[4-({4-hydroxypyrido[3,4-d]pyrimidin-2-yl}oxy)-1H-pyrazol-1-yl]pyrrolidin-1-yl]ethan-1-one] | ≤ 100 | ≤ 100
O=C(C1CC1)N1CC[C@H](n2cc(Oc3nc(O)c4ccncc4n3)cn2)C1 [Example 141, 2-({1-[(3S)-1-cyclopropanecarbonylpyrrolidin-3-yl]-1H-pyrazol-4-yl}oxy)pyrido[3,4-d]pyrimidin-4-ol] | ≤ 100 | ≤ 100
O=C(C1CCNCC1)N1CC[C@H](n2cc(Oc3nc(O)c4ccncc4n3)cn2)C1 [Example 143, 2-({1-[(3S)-1-(piperidine-4-carbonyl)pyrrolidin-3-yl]-1H-pyrazol-4-yl}oxy)pyrido[3,4-d]pyrimidin-4-ol] | ≤ 100 | ≤ 100
CNCC(=O)N1CC[C@H](n2cc(Oc3nc(O)c4ccncc4n3)cn2)C1 [Example 144, 1-[(3S)-3-[4-({4-hydroxypyrido[3,4-d]pyrimidin-2-yl}oxy)-1H-pyrazol-1-yl]pyrrolidin-1-yl]-2-(methylamino)ethan-1-one] | ≤ 100 | ≤ 100
Oc1nc(Oc2cnn([C@H]3CCN(c4ccccc4)C3)c2)nc2cnccc12 [Example 145, 2-({1-[(3S)-1-phenylpyrrolidin-3-yl]-1H-pyrazol-4-yl}oxy)pyrido[3,4-d]pyrimidin-4-ol] | ≤ 100 | ≤ 100
Oc1nc(Oc2cnn([C@H]3CCN(c4ccccc4F)C3)c2)nc2cnccc12 [Example 147, 2-({1-[(3S)-1-(2-fluorophenyl)pyrrolidin-3-yl]-1H-pyrazol-4-yl}oxy)pyrido[3,4-d]pyrimidin-4-ol] | ≤ 100 | ≤ 100
Oc1nc(Oc2cnn([C@@H]3CCCNC3)c2)nc2cnccc12 [Example 149, 2-({1-[(3R)-piperidin-3-yl]-1H-pyrazol-4-yl}oxy)pyrido[3,4-d]pyrimidin-4-ol] | ≤ 100 | ≤ 100
O=S(=O)(c1ccccc1)N1CCC[C@@H](n2cc(Oc3nc(O)c4ccncc4n3)cn2)C1 [Example 152, 2-({1-[(3R)-1-(benzenesulfonyl)piperidin-3-yl]-1H-pyrazol-4-yl}oxy)pyrido[3,4-d]pyrimidin-4-ol] | ≤ 100 | ≤ 100
CC(=O)N1CCC[C@@H](n2cc(Oc3nc(O)c4ccncc4n3)cn2)C1 [Example 153, 1-[(3R)-3-[4-({4-hydroxypyrido[3,4-d]pyrimidin-2-yl}oxy)-1H-pyrazol-1-yl]piperidin-1-yl]ethan-1-one] | ≤ 100 | ≤ 100
N#CCC(=O)N1CCC[C@@H](n2cc(Oc3nc(O)c4ccncc4n3)cn2)C1 [Example 154, 3-[(3R)-3-[4-({4-hydroxypyrido[3,4-d]pyrimidin-2-yl}oxy)-1H-pyrazol-1-yl]piperidin-1-yl]-3-oxopropanenitrile] | ≤ 100 | ≤ 100
